Measurements taken from patent publication US9506032B2, “Engineered biological pacemakers” (The United States of America, as represented by the …, priority 2009, dated 2016).

Tests used:
Format in all cases: cell-based, Mouse
[1] = tested on: spontaneously beating ESCs; experiment: Spontaneous action potentials and Ca2+ signals in intact spontaneously beating ESCs (patch clamp with confocal imaging); details: for LCRs (effect of intervention) / spontaneous AP firing and Ca2+ transients: intact spontaneously beating ESCs (FIG. 6)
Source text: (§1) Mouse ES cells of line R1 were differentiated into cardiac cells using the “hanging drop” technique. ESCs were isolated from in vitro-grown embryoid bodies by microdissection followed by collagenase treatment. […] At day 2, EBs were transferred into bacteriological petri dishes and cultured in suspension until day 5. […] Individual spontaneously beating ESCs were isolated by microdissection and collagenase treatment.
ESCs differentiated in vitro for 9 to 20 days after plating of 7 days old embryoid bodies were studied during continuous superfusion with solution containing in mmol/L: 140 NaCl, 5.4 KCl, 5 HEPES, 2 MgCl2, 1.8 CaCl2, 10 glucose, (pH adjusted to 7.4 with NaOH). Selection of the cells for patch-clamp technique was based on spontaneous beating. Action potentials were measured at physiological temperature (35±2° C.) with standard current-clamp technique (Axopatch 200, Axon Instruments, Foster City, Calif., USA), pCLAMP7 software was used for data acquisition and analysis (Axon Instruments). Perforated patch-clamp technique was performed with β-escin added to the electrode solution. Patch pipette solution contained in mmol/L: 120 K-gluconate, 5 NaCl, 5 Mg-ATP, 5 HEPES, 20 KCl, 3 Na2ATP (pH adjusted to 7.2 with NaOH). […] Patch pipette filling solution contained (in mmol/L) 120 CsCl, 10 NaCl, 20 tetraethylammonium chloride, 5 MgATP, and 20 HEPES (pH 7.2 adjusted with CsOH), and 100 μmol/L fluo-4 pentapotassium salt (Molecular Probes). Four conditioning pulses of 100 ms and 0 mV were delivered at 1.0 Hz prior to each test voltage pulse to load the SR with Ca^2+.
In whole cell configuration, fluo-4 was added directly to the pipette solution.
(§2) Fluo-4 measurements are presented in terms of F/F0 (normalized Ca^2+ signal). […] were analyzed by programs developed using Delfi-7 software. The duration and width of LCRs were measured as the time at half-maximal amplitude of the normalized signal.

[2] = tested on: Na+/Ca2+ exchanger (NCX) current in ESCs; experiment: Inward NCX current spikes in ESCs voltage-clamped at -50 mV; details: voltage clamp −50 mV, Na+ substituted by Li+ inhibiting NCX; 10 to 20 pA in control
Protocol: ESCs differentiated in vitro for 9 to 20 days after plating of 7 days old embryoid bodies were studied during continuous superfusion with solution containing in mmol/L: 140 NaCl, 5.4 KCl, 5 HEPES, 2 MgCl2, 1.8 CaCl2, 10 glucose, (pH adjusted to 7.4 with NaOH). Selection of the cells for patch-clamp technique was based on spontaneous beating. Action potentials were measured at physiological temperature (35±2° C.) with standard current-clamp technique (Axopatch 200, Axon Instruments, Foster City, Calif., USA), pCLAMP7 software was used for data acquisition and analysis (Axon Instruments). Perforated patch-clamp technique was performed with β-escin added to the electrode solution. Patch pipette solution contained in mmol/L: 120 K-gluconate, 5 NaCl, 5 Mg-ATP, 5 HEPES, 20 KCl, 3 Na2ATP (pH adjusted to 7.2 with NaOH). Recording of L-type Ca^2+ current (ICaL) simultaneously with Ca^2+ signal imaging (see Example 3) were performed under whole cell voltage clamp. […]
When activation of ion channels and APs are disabled by voltage clamp at −50 mV, spontaneous LCRS for at least 5 s were observed (FIG. 4, Panel A). […] It was determined under the voltage clamp whether LCRs can cause the current spikes via NCX activation. […]

saponin-skinned ESCs = experiment: Local Ca2+ releases (LCRs) in saponin-skinned ESCs, confocal line-scan Ca2+ imaging; details: for LCRs (effect of drug): skinned ESCs, 150 nmol/L free [Ca2+]
Source text: as §1, §2

Compound: CC(=O)OCOC(=O)CN(CC(=O)OCOC(C)=O)c1ccccc1OCCOc1ccccc1N(CC(=O)OCOC(C)=O)CC(=O)OCOC(C)=O [BAPTA-AM]
- LCRs (effect of intervention) [1]: inhibited
- spontaneous AP firing and Ca2+ transients [1]: became irregular, culminating in cessation of automaticity or in extremely rare and irregular beating

Compound: Nc1ncnc2c1nc(Sc1ccc(Cl)cc1)n2[C@@H]1O[C@@H]2COP(=O)(O)O[C@H]2[C@H]1O [CPT-cAMP]
- cycle length (CL) variability index (100%×CL standard deviation/CL mean) ([1]; cells with irregular beating, after 300 μmol/L CPT-cAMP, before 23.98+/−4.82%, P<0.05): 11.23+/−2.68%
- rhythmicity of beating ([1]; irregularly beating ESCs, 300 μmol/L CPT-cAMP): converted irregularly beating ESCs to rhythmic pacemakers

Compound: O=S(=O)(NCCNC/C=C/c1ccc(Br)cc1)c1cccc2cnccc12 [H89]
- APs / automaticity on PKA inhibition ([1]; spontaneously beating ESCs, 10 μmol/L): irregUlar APs or cessation of automaticity

Compound: [Li+] [Li^+]
- high-amplitude inward current spikes [2]: disappeared
- spontaneous excitation (APs) ([1]; Na+-free lithium solution applied ~1 s, zero-current clamp, rhythmic LCRs continued): excitation failure

Compound: Nc1ncnc2c1ncn2[C@@H]1O[C@@H]2COP(=O)(O)O[C@H]2[C@H]1O [cAMP, cyclic AMP]
- local Ca2+ oscillators (saponin-skinned ESCs; saponin-skinned ESCs, stimulation with 20 μmol/L cAMP): emergence of new local Ca^2+ oscillators in many cell locations

Compound: CCCCNc1ccc(C(=O)OCCN(C)C)cc1 [tetracaine]
- LCRs (effect of drug) (saponin-skinned ESCs; 1 mmol/L drug): inhibited

Compound: C/C=C(/C)C(=O)O[C@H]1C(C)=C2[C@H]([C@@H]1OC(=O)CCCCCCC)[C@@](C)(OC(C)=O)C[C@H](OC(=O)CCC)[C@@]1(O)[C@H]2OC(=O)[C@@]1(C)O [thapsigargin]
- LCRs (effect of drug) (saponin-skinned ESCs; 10 μmol/L drug): inhibited
- LCRs (effect of intervention) [1]: inhibited
- spontaneous AP firing and Ca2+ transients [1]: became irregular, culminating in cessation of automaticity or in extremely rare and irregular beating

Compound: ryanodine
- LCRs (effect of drug) (saponin-skinned ESCs; 10 μmol/L drug): inhibited
- LCRs (effect of intervention) [1]: inhibited
- spontaneous AP firing and Ca2+ transients [1]: became irregular, culminating in cessation of automaticity or in extremely rare and irregular beating
